ChEMBL document CHEMBL1201862, “PubChem BioAssay data set” (2004)
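A five-concentration, 48-hour dose response in 96-well plates underlies each endpoint, interpolated linearly between surrounding concentrations. GI50 marks 50% less growth.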 Activity calls are given as the source filed them. No stated cut-off is given here; in the data, active = GI50 up to about 1.1 µM and inactive = higher.

What was measured:
Test in all cases: NCI anticancer screen, dose series, 48 h
A498 = test system: A498
A549 = test system: A549
ACHN = test system: ACHN
CCRF-CEM = test system: CCRF-CEM
DMS-114 = test system: DMS-114
DMS-273 = test system: DMS-273
EKVX = test system: EKVX
HCT-116 = test system: HCT-116
HL-60 = test system: HL-60
HOP-62 = test system: HOP-62
HOP-92 = test system: HOP-92
HT-29 = test system: HT-29
IGROV-1 = test system: IGROV-1
KM12 = test system: KM12
M14 = test system: M14
MOLT-4 = test system: MOLT-4
NCI-H226 = test system: NCI-H226
NCI-H23 = test system: NCI-H23
NCI-H460 = test system: NCI-H460
NCI-H522 = test system: NCI-H522
OVCAR-5 = test system: OVCAR-5
OVCAR-8 = test system: OVCAR-8
RXF 393 = test system: RXF 393
SF-295 = test system: SF-295
SK-MEL-28 = test system: SK-MEL-28
SK-OV-3 = test system: SK-OV-3
SNB-19 = test system: SNB-19
SNB-78 = test system: SNB-78
SR = test system: SR
TK-10 = test system: TK-10
U-251 = test system: U-251
UACC-257 = test system: UACC-257
UO-31 = test system: UO-31
HCC 2998 = test system: HCC 2998
HCT-15 = test system: HCT-15
KM-20L2 = test system: KM-20L2
LOX IMVI = test system: LOX IMVI
M19-MEL = test system: M19-MEL
Malme-3M = test system: Malme-3M
OVCAR-3 = test system: OVCAR-3
RPMI-8226 = test system: RPMI-8226
SF-539 = test system: SF-539
SK-MEL-5 = test system: SK-MEL-5
SW-620 = test system: SW-620
COLO 205 = test system: COLO 205
DLD-1 = test system: DLD-1
NCI/ADR-RES = test system: NCI/ADR-RES
SF-268 = test system: SF-268
SK-MEL-2 = test system: SK-MEL-2
UACC-62 = test system: UACC-62
786-0 = test system: 786-0
BT-549 = test system: BT-549
CAKI-1 = test system: CAKI-1
DU-145 = test system: DU-145
Hs-578T = test system: Hs-578T
K562 = test system: K562
MCF7 = test system: MCF7
MDA-MB-231 = test system: MDA-MB-231
MDA-MB-435 = test system: MDA-MB-435
MDA-N = test system: MDA-N
OVCAR-4 = test system: OVCAR-4
PC-3 = test system: PC-3
SN12C = test system: SN12C
SNB-75 = test system: SNB-75
T47D = test system: T47D

`CCN(CC)CSc1nc2ccccc2[nH]1` was tested, and the GI50 (A498) was > 100 µM (inactive), the GI50 (A549) was > 100 µM (inactive) and the GI50 (ACHN) was > 100 µM (inactive). For the same compound, the GI50 (CCRF-CEM) was > 100 µM (inactive), the GI50 (DMS-114) was > 100 µM (inactive) and the GI50 (DMS-273) was > 100 µM (inactive). The GI50 (EKVX) was > 100 µM (inactive), the GI50 (HCT-116) was > 100 µM (inactive) and the GI50 (HL-60) was > 100 µM (inactive). The GI50 (HOP-62) was > 100 µM (inactive), the GI50 (HOP-92) was > 100 µM (inactive) and the GI50 (HT-29) was > 100 µM (inactive). The GI50 (IGROV-1) was > 100 µM (inactive), the GI50 (KM12) was > 100 µM (inactive) and the GI50 (M14) was > 100 µM (inactive). The GI50 (MOLT-4) was > 100 µM (inactive), the GI50 (NCI-H226) was > 100 µM (inactive) and the GI50 (NCI-H23) was > 100 µM (inactive). The GI50 (NCI-H460) was > 100 µM (inactive), the GI50 (NCI-H522) was > 100 µM (inactive) and the GI50 (OVCAR-5) was > 100 µM (inactive). For the same compound, the GI50 (OVCAR-8) was > 100 µM (inactive), the GI50 (RXF 393) was > 100 µM (inactive) and the GI50 (SF-295) was > 100 µM (inactive). For the same compound, the GI50 (SK-MEL-28) was > 100 µM (inactive), the GI50 (SK-OV-3) was > 100 µM (inactive) and the GI50 (SNB-19) was > 100 µM (inactive). The GI50 (SNB-78) was > 100 µM (inactive), the GI50 (SR) was > 100 µM (inactive) and the GI50 (TK-10) was > 100 µM (inactive). The GI50 (U-251) was > 100 µM (inactive), the GI50 (UACC-257) was > 100 µM (inactive) and the GI50 (UO-31) was > 100 µM (inactive).

In the case of `COc1cc([C@@H]2c3cc4c(cc3[C@@H](NCCCN(C)C)[C@H]3COC(=O)[C@H]23)OCO4)cc(OC)c1O`, the GI50 (A549) is reported as 0.142 µM (active), the GI50 (ACHN) is reported as 0.076 µM (active) and the GI50 (CCRF-CEM) is reported as 0.098 µM (active). The GI50 (DMS-273) was 0.164 µM (active), the GI50 (EKVX) was 0.745 µM (active) and the GI50 (HCC 2998) was 0.838 µM (active). For the same compound, the GI50 (HCT-116) was 0.658 µM (active), the GI50 (HCT-15) was 0.513 µM and the GI50 (HL-60) was 0.0582 µM (active). For the same compound, the GI50 (HT-29) was 0.916 µM (active), the GI50 (IGROV-1) was 0.653 µM (active) and the GI50 (KM-20L2) was 0.716 µM (active). The GI50 (KM12) was 0.769 µM (active), the GI50 (LOX IMVI) was 0.181 µM (active) and the GI50 (M19-MEL) was 0.53 µM (active). The GI50 (MOLT-4) was 0.0222 µM (active), the GI50 (Malme-3M) was 0.379 µM (active) and the GI50 (NCI-H460) was 0.0232 µM (active). For the same compound, the GI50 (NCI-H522) was 0.637 µM (active), the GI50 (OVCAR-3) was 0.849 µM (active) and the GI50 (OVCAR-5) was 1.15 µM (inactive). For the same compound, the GI50 (RPMI-8226) was 0.525 µM (active), the GI50 (SF-295) was 0.0995 µM (active) and the GI50 (SF-539) was 0.376 µM (active). For the same compound, the GI50 (SK-MEL-5) was 0.212 µM (active), the GI50 (SK-OV-3) was 0.137 µM (active) and the GI50 (SNB-19) was 0.22 µM (active). For the same compound, the GI50 (SW-620) was 0.346 µM (active), the GI50 (U-251) was 0.242 µM (active) and the GI50 (UO-31) was 0.423 µM (active).

With `O=C(O)/C=C/c1c[nH]c(=O)[nH]c1=O` the GI50 (CCRF-CEM) was > 250 µM (inactive), the GI50 (COLO 205) was > 250 µM (inactive) and the GI50 (DLD-1) was > 250 µM (inactive). The GI50 (EKVX) was > 250 µM (inactive), the GI50 (HCC 2998) was > 250 µM (inactive) and the GI50 (HCT-116) was > 250 µM (inactive). The GI50 (HCT-15) was over 250 µM, the GI50 (HL-60) was 237 µM (inactive) and the GI50 (IGROV-1) was > 250 µM (inactive). The GI50 (KM12) was > 250 µM (inactive), the GI50 (LOX IMVI) was > 250 µM (inactive) and the GI50 (MOLT-4) was > 250 µM (inactive). The GI50 (Malme-3M) was > 250 µM (inactive), the GI50 (NCI-H226) was > 250 µM (inactive) and the GI50 (NCI-H460) was > 250 µM (inactive). For the same compound, the GI50 (NCI-H522) was > 250 µM (inactive), the GI50 (NCI/ADR-RES) was > 250 µM (inactive) and the GI50 (OVCAR-3) was > 250 µM (inactive). For the same compound, the GI50 (OVCAR-8) was > 250 µM (inactive), the GI50 (RPMI-8226) was > 250 µM (inactive) and the GI50 (SF-268) was > 250 µM (inactive). For the same compound, the GI50 (SF-295) was 129 µM (inactive), the GI50 (SF-539) was > 250 µM (inactive) and the GI50 (SK-MEL-28) was > 250 µM (inactive). For the same compound, the GI50 (SK-MEL-2) was > 250 µM (inactive), the GI50 (SK-MEL-5) was > 250 µM (inactive) and the GI50 (SNB-19) was > 250 µM (inactive). The GI50 (SNB-78) was > 250 µM (inactive), the GI50 (SW-620) was > 250 µM (inactive) and the GI50 (U-251) was > 250 µM (inactive). For the same compound, the GI50 (UACC-257) was > 250 µM (inactive), the GI50 (UACC-62) was > 250 µM (inactive) and the GI50 (UO-31) was > 250 µM (inactive).

For `CCN(CC)c1ccc2cc(-c3nnc(-c4ccccc4)o3)c(=O)oc2c1`, the GI50 (786-0) was 17 µM (inactive), the GI50 (A498) was 45.9 µM (inactive) and the GI50 (A549) was 16.4 µM (inactive). For the same compound, the GI50 (ACHN) was 18.2 µM (inactive), the GI50 (BT-549) was > 57.1 µM (inactive) and the GI50 (CAKI-1) was > 45.7 µM (inactive). The GI50 (CCRF-CEM) was 3.89 µM (inactive), the GI50 (COLO 205) was 20.3 µM (inactive) and the GI50 (DU-145) was 66.2 µM (inactive). The GI50 (EKVX) was 59.8 µM (inactive), the GI50 (HCC 2998) was 2.2 µM (inactive) and the GI50 (HCT-116) was 19.9 µM (inactive). The GI50 (HCT-15) was 6.35 µM, the GI50 (HL-60) was 16.6 µM (inactive) and the GI50 (HOP-62) was 17.6 µM (inactive). For the same compound, the GI50 (HOP-92) was > 100 µM (inactive), the GI50 (HT-29) was 25.4 µM (inactive) and the GI50 (Hs-578T) was > 84.9 µM (inactive). For the same compound, the GI50 (IGROV-1) was 28.9 µM (inactive), the GI50 (K562) was 1.4 µM (inactive) and the GI50 (KM12) was 46.7 µM (inactive). The GI50 (LOX IMVI) was 29.6 µM (inactive), the GI50 (M14) was 32.1 µM (inactive) and the GI50 (MCF7) was 22.5 µM (inactive). The GI50 (MDA-MB-231) was 22.9 µM (inactive), the GI50 (MDA-MB-435) was > 48.6 µM (inactive) and the GI50 (MDA-N) was 48.5 µM (inactive). For the same compound, the GI50 (MOLT-4) was 0.413 µM (active), the GI50 (Malme-3M) was > 66.8 µM (inactive) and the GI50 (NCI-H226) was 29.4 µM (inactive). The GI50 (NCI-H23) was 56.9 µM (inactive), the GI50 (NCI-H460) was 4.93 µM (inactive) and the GI50 (NCI-H522) was 28.8 µM (inactive). The GI50 (NCI/ADR-RES) was 7.67 µM (inactive), the GI50 (OVCAR-3) was 7.05 µM (inactive) and the GI50 (OVCAR-4) was 39.4 µM (inactive). For the same compound, the GI50 (OVCAR-5) was 56.2 µM (inactive), the GI50 (OVCAR-8) was 28.1 µM (inactive) and the GI50 (PC-3) was 30.8 µM (inactive). The GI50 (RPMI-8226) was 12.1 µM (inactive), the GI50 (RXF 393) was 14.5 µM (inactive) and the GI50 (SF-268) was 28 µM (inactive). The GI50 (SF-295) was 17.3 µM (inactive), the GI50 (SF-539) was 13 µM (inactive) and the GI50 (SK-MEL-28) was > 85.3 µM (inactive). The GI50 (SK-MEL-2) was 19.9 µM (inactive), the GI50 (SK-MEL-5) was 29.5 µM (inactive) and the GI50 (SK-OV-3) was 14.7 µM (inactive). The GI50 (SN12C) was 31.4 µM (inactive), the GI50 (SNB-19) was 25.9 µM (inactive) and the GI50 (SNB-75) was 24.3 µM (inactive). The GI50 (SR) was 6.64 µM (inactive), the GI50 (SW-620) was 30.5 µM (inactive) and the GI50 (T47D) was 23.4 µM (inactive). For the same compound, the GI50 (TK-10) was 25.4 µM (inactive), the GI50 (U-251) was 11.3 µM (inactive) and the GI50 (UACC-257) was 32.5 µM (inactive). The GI50 (UACC-62) was 36.6 µM (inactive) and the GI50 (UO-31) was 19.1 µM (inactive).
